Measurements from paper PMC9317628, “Secondary Metabolites in the Dendrobium heterocarpum Methanolic Extract and Their Impacts on Viability and Lipid Storage of 3T3-L1 Pre-Adipocytes” (Nutrients, 2022).

Experiments:
3T3-L1 cells [1] = assay: Oil Red O staining, cellular lipid content in differentiating cells; type: cell-based, mouse; conditions: for effect on cellular lipid storage (percentage of Oil Red O-stained cells): 5 µM, 48 h exposure, staining on day 8, vs untreated vehicle control; for IC50: Mus musculus, 3T3-L1, based on percentage of Oil Red O-stained, read-out: IC50 to suppress cellular lipid accumulation
Experimental: The mouse embryonic 3T3-L1 pre-adipocytes purchased from the American Type Culture Collection (ATCC, Manassas, VA, USA) were cultured at 37 °C with a 5% CO2 stream in a complete Dulbecco’s modified Eagle medium (DMEM) (Gibco, Gaithersburg, MA, USA) that contained 10% fetal bovine serum (FBS; Gibco, Gaithersburg, MA, USA), 1000 units mL^−1 of penicillin/streptomycin (Gibco, Gaithersburg, MA, USA), and 2 mM of L-glutamine (Gibco, Gaithersburg, MA, USA). For adipocyte differentiation, 3T3-L1 cells at 100% confluent were incubated at 37 °C with a 5% CO2 stream for two days in a differentiation medium made of the complete DMEM plus 0.5 mM isobutyl methylxanthine (IBMX) (Sigma Aldrich, St. Louis, MO, USA), 1 µM of dexamethasone (Sigma Aldrich, St. Louis, MO, USA), and 5 µg mL^−1 of insulin (Sigma Aldrich, St. Louis, MO, USA). Then, the medium was replaced with an insulin medium made of the complete DMEM plus 5 µg mL^−1 of insulin, and cells were continuously incubated under the same conditions for another two days. The medium was replaced with the complete DMEM every two days to maintain adipocyte development. Cellular lipid droplets developed along the differentiation program could be observed under a light microscope (Nikon Ts2, Tokyo, Japan). Oil Red O staining was performed to determine the content of lipid droplets in differentiating 3T3-L1 cells. The adipocyte differentiation program as described previously was established, and cells were exposed to each tested compound at 5 µM for 48 h after obtaining 100% confluence. Cells exposed to 0.5% (v/v) DMSO and 20 µM of oxyresveratrol served as untreated vehicle and positive controls, respectively. Tested compounds were diluted in the differentiation medium before testing, in which the concentrations of DMSO were restricted to be lower than 0.5% (v/v). After the treatments, differentiating 3T3-L1 cells on day 8 of the differentiation program were fixed with 10% formalin and incubated with the Oil Red O staining solution (Sigma Aldrich, St. Louis, MO, USA) at an ambient temperature for 1 h. Cells were then washed thrice with distilled water and 60% (v/v) isopropanol (Sigma Aldrich, St. Louis, MO, USA) to remove the excess dye. Oil Red O-stained 3T3-L1 cells were observed using a light microscope (Nikon Ts2, Tokyo, Japan). The cellular Oil Red O content was extracted using absolute isopropanol and measured for absorbance at a 510 nm wavelength by the microplate reader. The percentage of Oil Red O-stained cells was calculated after normalization with the total cellular protein content determined by a BCA protein assay kit (Thermo Scientific, Rockford, CA, USA).

3T3-L1 pre-adipocytes = assay: MTT cytotoxicity assay (cell viability); type: cell-based, mouse; conditions: 48 h; for cytotoxic effect (cell viability vs untreated vehicle control): 5 µM (lowest tested concentration); for non-cytotoxic concentrations: no significant difference from vehicle control
Experimental: (§1) The mouse embryonic 3T3-L1 pre-adipocytes purchased from the American Type Culture Collection (ATCC, Manassas, VA, USA) were cultured at 37 °C with a 5% CO2 stream in a complete Dulbecco’s modified Eagle medium (DMEM) (Gibco, Gaithersburg, MA, USA) that contained 10% fetal bovine serum (FBS; Gibco, Gaithersburg, MA, USA), 1000 units mL^−1 of penicillin/streptomycin (Gibco, Gaithersburg, MA, USA), and 2 mM of L-glutamine (Gibco, Gaithersburg, MA, USA). For adipocyte differentiation, 3T3-L1 cells at 100% confluent were incubated at 37 °C with a 5% CO2 stream for two days in a differentiation medium made of the complete DMEM plus 0.5 mM isobutyl methylxanthine (IBMX) (Sigma Aldrich, St. Louis, MO, USA), 1 µM of dexamethasone (Sigma Aldrich, St. Louis, MO, USA), and 5 µg mL^−1 of insulin (Sigma Aldrich, St. Louis, MO, USA). Then, the medium was replaced with an insulin medium made of the complete DMEM plus 5 µg mL^−1 of insulin, and cells were continuously incubated under the same conditions for another two days. The medium was replaced with the complete DMEM every two days to maintain adipocyte development. Cellular lipid droplets developed along the differentiation program could be observed under a light microscope (Nikon Ts2, Tokyo, Japan). The cytotoxic effect of elucidated compounds from D. heterocarpum on 3T3-L1 cell viability was evaluated using 3-(4,5-dimethylthiazol-2-yl)-2,5-diphenyl tetrazolium bromide (MTT) (Sigma Aldrich, St. Louis, MO, USA) assay. 3T3-L1 cells were seeded in 96-well plates at a density of 2 × 10^3 cells/well and incubated at 37 °C with a 5% CO2 stream until reaching 100% confluent. Cells were then exposed to varying concentrations (5, 10, and 20 µM) of the tested compounds in the complete DMEM for 48 h. Before testing, every tested compound resuspended in absolute dimethyl sulfoxide (DMSO) (Sigma Aldrich, St. Louis, MO, USA) was prepared by dilution using the complete DMEM. The concentration of DMSO in each treatment was limited to <0.5% (v/v). DMSO at 0.5% (v/v) and 20 µM of oxyresveratrol (a known compound with the ability to suppress adipocyte differentiation) were included in the tests as untreated vehicle and positive controls, respectively. After exposure for 48 h, the medium was removed, and the MTT solution (0.45 mg mL^−1), prepared by dissolving in phosphate-buffered saline (PBS), was added. The assay was incubated at 37 °C with a 5% CO2 stream for 3 h. Then, the MTT solution was replaced with absolute DMSO to dissolve the purple formazan crystal that formed, which was further measured for absorbance at a 570 nm wavelength using a microplate reader (Anthros, Durham, NC, USA). The relative absorbance value between treated cells to vehicle control cells was presented as the percentage of cell viability. Non-cytotoxic concentrations of a tested compound were defined based on no significant difference in the percentages of cell viability derived from the treatments and the vehicle control.

[2] = MTT cytotoxicity assay (cell viability); type: cell-based, mouse; conditions: mouse, 3T3-L1 pre-adipocytes, 20 µM, relative to vehicle control, read-out: percentage of cell viability
Experimental: as §1

pancreatic lipase = conditions: cited from earlier work
α-glucosidase = conditions: cited from earlier work
3T3L-1 cells = test system: 3T3L-1 cells; design: method as in PMID 32571087; conditions: cited from earlier work
C/EBPα = assay: Western blot, C/EBPα expression at early adipocyte differentiation; type: cell-based, mouse; conditions: 10 µM, 48 h in differentiation medium
Experimental: (§2) The impacts of a tested compound on the expression and activation of proteins that are linked to cellular responses in the early phase of adipocyte differentiation were assessed using Western blot analysis. The list of proteins analyzed in this study included adipogenic regulators (i.e., PPARγ and C/EBPα) and the MAPK signaling pathways-mediated proteins (i.e., JNK, ERK, and p38). The expression or activation of each target protein was normalized with β-Actin as a reference cellular protein. The activation of JNK, ERK, and p38 was assessed using the phosphorylation ratio between those phosphorylated (i.e., p-ERK, p-JNK, and p-p38) and the sum of those phosphorylated and non-phosphorylated.
(§3) 3T3-L1 pre-adipocytes at 100% confluence were exposed for 48 h to a tested compound at non-cytotoxic concentrations prepared in the differentiation medium. Cells were then washed with PBS (pH 7.4) and used for protein extraction by incubation in an ice-cold radio-immunoprecipitation assay buffer (Thermo Scientific, Rockford, CA, USA) supplemented with the protease inhibitor cocktail (Roche Applied Science, Indianapolis, IN, USA) for 45 min. Derived cell lysates were centrifuged at 4 °C, 6440× g for 15 min, and the supernatant was collected. The BCA protein assay kit was conducted to quantify the total protein content in the supernatant. […]

ERK = assay: Western blot, ERK phosphorylation ratio; type: cell-based, mouse; conditions: 48 h, vs untreated vehicle control
Experimental: as §2, §3

PPARγ = assay: Western blot, PPARγ expression at early adipocyte differentiation; type: cell-based, mouse; conditions: 10 µM, 48 h in differentiation medium
Experimental: as §2, §3

[3] = test system: HeLa cervical cancer cell line; design: method as in doi:10.1177/1934578X20908678; conditions: cited from earlier work
JNK = assay: Western blot, JNK phosphorylation ratio; type: cell-based, mouse; conditions: 48 h, vs untreated vehicle control
Experimental: as §2, §3

3T3-L1 cells [4] = assay: Nuclear staining with Hoechst 33342 / propidium iodide (cell death); type: cell-based; conditions: 20 µM, 48 h, Hoechst 33342/PI
Experimental: 3T3-L1 cell death after exposure to varying concentrations of the tested compounds was also determined by the nuclear staining technique. Hoechst 33342 (Sigma Aldrich, St. Louis, MO, USA) and propidium iodide (PI) (Sigma Aldrich, St. Louis, MO, USA) were used as staining dyes. After 48 h of treatment, the assay medium was removed from 3T3-L1 cells and replaced with PBS containing 2 µg mL^−1 of Hoechst 33342 and 1 µg mL^−1 of PI. Cells were stained for 30 min at 37 °C with a 5% CO2 stream and observed/photographed under a fluorescence microscope (Olympus IX51 with DP70, Tokyo, Japan). Bright cells with a disseminated nucleus under both blue and red filters were referred to as dead cells.

p38 = assay: Western blot, p38 phosphorylation ratio; type: cell-based, mouse; conditions: 48 h, vs untreated vehicle control
Experimental: as §2, §3

COc1ccc(CCc2cc(OC)c3c(c2)O[C@@H](c2cc(OC)c(O)c(OC)c2)[C@H](CO)O3)cc1 [Compound 4, dendrocandin B]
effect on cellular lipid storage (percentage of Oil Red O-stained cells) (3T3-L1 cells [1]): absence of its bioactivity to suppress lipid accumulation
cytotoxic effect (cell viability vs untreated vehicle control) (3T3-L1 pre-adipocytes): significant decrease in cell viability
viability at 48 h, 20 µM [2]: 61.3 ± 1.1%
pancreatic lipase activity inhibition (pancreatic lipase): did not hamper
α-glucosidase activity inhibition (α-glucosidase): did not hamper

COC(=O)CCc1ccc(O)cc1 [Compound 2, methyl 3-(4-hydroxyphenyl) propionate]
effect on cellular lipid storage (percentage of Oil Red O-stained cells) (3T3-L1 cells [1]): significantly decrease
non-cytotoxic concentrations (3T3-L1 pre-adipocytes): ≤ 10 µM

COc1cc([C@H]2OC[C@H]3[C@@H]2CO[C@@H]3c2cc(OC)c(O)c(OC)c2)cc(OC)c1O [Compound 6, syringaresinol]
effect on cellular lipid storage (percentage of Oil Red O-stained cells) (3T3-L1 cells [1]): significantly decrease
non-cytotoxic concentrations (3T3-L1 pre-adipocytes): ≤ 10 µM
promotion of glucose uptake (3T3L-1 cells): no function to promote glucose uptake

COc1ccc(CCc2cc(O)c(O)c(OC)c2)cc1 [Compound 3, 3,4-dihydroxy-5,4′-dimethoxybibenzyl]
C/EBPα expression relative to β-Actin (C/EBPα): maximum suppression
ERK phosphorylation (ERK; 2.5 µM): did not affect
ERK phosphorylation (ERK; 10 µM): significantly suppressed
effect on cellular lipid storage (percentage of Oil Red O-stained cells) (3T3-L1 cells [1]): significantly decrease
IC50 (3T3-L1 cells [1]): 6.3 ± 0.1 µM
IC50 fold lower than oxyresveratrol (3T3-L1 cells [1]; lipid accumulation IC50 ratio to positive control): approximately 3 fold
PPARγ expression relative to β-Actin (PPARγ): maximum suppression
cytotoxic effect on HeLa cells [3]: did not show a cytotoxic effect
non-cytotoxic concentrations (3T3-L1 pre-adipocytes): ≤ 10 µM
JNK phosphorylation (JNK; 2.5 µM): did not affect
JNK phosphorylation (JNK; 10 µM): significantly suppressed
dead cells by nuclear staining (3T3-L1 cells [4]): some dead cells
p38 phosphorylation (p38; 2.5 µM): did not affect
p38 phosphorylation (p38; 10 µM): significantly suppressed

COc1ccc(CCc2cc(OC)c(O)c(OC)c2)cc1 [Compound 1, amoenylin]
effect on cellular lipid storage (percentage of Oil Red O-stained cells) (3T3-L1 cells [1]): significantly decrease

COc1ccc(CCc2cc(OC)c(O)c3c2C(Cc2ccc(OC)cc2)c2cc(O)c(O)c(OC)c2O3)cc1 (stereo not shown) [Compound 5, dendrofalconerol A]
effect on cellular lipid storage (percentage of Oil Red O-stained cells) (3T3-L1 cells [1]): did not exhibit the inhibitory effect on lipid accumulation
cytotoxic effect (cell viability vs untreated vehicle control) (3T3-L1 pre-adipocytes): significant decrease in cell viability
viability at 48 h, 20 µM [2]: 61.3 ± 1.1%
pancreatic lipase activity inhibition (pancreatic lipase): strong capability to inhibit
α-glucosidase activity inhibition (α-glucosidase): strong capability to inhibit

Oc1cc(O)cc(/C=C/c2ccc(O)cc2O)c1 [oxyresveratrol, reference compound]
IC50 (3T3-L1 cells [1]): 20.2 ± 1.2 µM
